# Reference: article PMC10914731, “Homo-BacPROTAC-induced degradation of ClpC1 as a strategy against drug-resistant mycobacteria” (Nature Communications, 2024)
# Values joined by “and” are separate entries in the source; they are usually repeats but may differ in a detail not shown here. Equal entries are not always repeated. Where two headings read alike, the source gives them in different places.
# Experiments:
# [1] = format: in vitro ADME, Rat
# Summary of the method: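 1 µmol/l cpd + 0.5 mg/ml microsomes, Tris-HCl 100 mM pH 7.5 / MgCl2 6.5 mM / NADPH 1 mM, 37 °C. Timed acetonitrile quench, spin, supernatant by HPLC-MS/MS. t1/2 from first-order decay → clearance %Qh, well-stirred model.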
# [2] = Hepatocyte stability, mice; format: in vitro ADME; conditions: clearance in hepatocytes
# Summary of the method: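 1 µM cpd (DMSO <0.05% final), cryopreserved hepatocytes ~1e6 cells/mL, 50% serum, pH 7.4, 37 °C/5–10% CO2; up to 6 h, 6 timepoints; ACN quench, HPLC-MS/MS; t1/2 → CL via well-stirred model, % Qh.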
# [3] = target: ClpC1-NTD substrate, M. tuberculosis ClpC1P1P2 (Mycobacterium tuberculosis, UniProt P9WPC9); test: biochemical; format: biochemical; conditions: Mtb
# [4] = in vivo; format: in vivo, BALB/cAnNCrl mice; conditions: BLOQ <1.00 nmol/L
# Experimental: The in-life experimental procedures were conducted in strict compliance with German and European animal welfare legislation in an AAALAC-accredited facility. Male BALB/cAnNCrl mice (Charles River Laboratories Research Models and Services, 97633 Sulzfeld, Germany) were used. Animals were 9 weeks old at dosing with a body weight of 21.6–24.3 g. Animals were delivered free of pathogens according to FELASA recommendations with a health certificate provided by the breeder. Upon receipt, the state of health and sex was checked. Animals acclimatized for at least 5 days before the commencement of the in-life phase. During acclimation, animals were group-housed in individually ventilated cages, on birch wood granulate bedding with species-specific enrichment (nesting material, mouse igloo, gnawing wood). During experimental conduct, animals were housed in conventional cages with elevated grid floors. Grid floor was used to avoid contamination with test item material excreted via urine and feces and subsequent reuptake during fur grooming. No bedding and enrichment were provided except a cage divider, which can be used as a shelter. Animals always had unlimited access to food and water and received a pelleted, total pathogen-free maintenance diet and tap drinking water, sterilized by filter.
# On the day before dosing, test item(s) were suspended in kleptose (20% in WFI) under continuous stirring (3.0 mg/ml). Following 2 min vortexing and 1 h stirring, the formulation was sonicated at 60 °C for 30 min and stirred at ambient temperature overnight. Before dosing, the formulation was vortexed for 2 min followed by ultraturrax treatment for 2 min.
# Male BALB/cAnNCrl mice (n = 3 per test item and administration route) received a bolus dose of the formulated test item(s) (1 mg/kg iv, 30 mg/kg po) at t = 0 h, and whole blood samples were collected subsequently (35 µl at 0.1 (iv) / 0.25 (po), 0.5, 1, 2, 4, 6 h; 600 µl at sacrifice after 24 h). Animals were euthanized by exsanguination in deep isoflurane anesthesia. Whole blood samples were immediately stored on ice at about 4 °C. Plasma was separated by centrifugation at approximately 10,000 × g for 5 m at +4 °C. Centrifugation of each blood sample was started within 10 m after collection. A single aliquot of at least 15 µL of plasma was prepared and immediately stored at −20 ± 5 °C.
# Sample proteins were precipitated with ACN (1 + 12, v/v) containing internal standard, and supernatants analyzed by quantitative UPLC-MS/MS: Phenomenex Luna Omega C18, 2.1 × 50 mm, 1.6 µm, 40 °C, gradient between 10% - 90% ACN with 0.1% formic acid. LogD determination: Lipophilicity of the test items, expressed as chromLogD7.5, was assessed by measuring their chromatographic retention times on C18-material. The chromatographic retention versus logD7.5 values of a series of thirteen n-alkan-2-ones (2-butanone – 2-hexadecanone) served as lipophilicity calibration.
# [5] = test system: Salmonella typhimurium; test: MIC ESKAPES panel, Salmonella typhimurium; format: cell-based; conditions: Salmonella enterica, TYPHIMURIUM
# Experimental: Minimum inhibitory concentration (MIC) against ESKAPES panel of Gram positive and Gram negative pathogens (Enterococcus faecium, Staphylococcus aureus, Klebsiella pneumoniae, Acinetobacter baumannii, Pseudomonas aeruginosa, Enterobacter cloacae and Salmonella typhimurium [ESKAPES panel]) were determined at the FNDR by the standard broth dilution method [CLSI, M100]. […] Mueller Hinton broth (MHB) medium was used to grow ESKAPES panel strains. The individual cultures were added as 200 μL (inoculum of 3–7 × 10^5 cfu/ml) to the respective assay plates in each well to all columns, except the media control (200 μL of medium). […] The assay plates were incubated at 37 °C, and the results were noted on the 2nd day as turbidometric readout. The clear wells indicated inhibition of growth, while the turbid wells indicated uninhibited growth.
# [6] = test system: Mtb H37Rv; test: Minimum bactericidal concentration (MBC), Mtb H37Rv; format: cell-based, Mycobacterium tuberculosis; conditions: Mycobacterium tuberculosis, H37RV
# [7] = test system: Mycobacterium avium; test: microbe, parasite or virus in culture; format: cell-based
# [8] = test system: Mtb ATCC 35825; test: microbe, parasite or virus in culture; format: cell-based
# [9] = oral gavage 30 mg/kg, mice, Mean
# [10] = oral gavage, individual animals 1-3
smiles,measurement,setting,value
CO[C@H](c1ccccc1)[C@@H]1NC(=O)[C@H](C)NC(=O)[C@H](C[C@@H](C)CO)N(C)C(=O)[C@H](Cc2cn(Cc3cn(CCOCCn4cc(Cn5cc(C[C@@H]6NC(=O)[C@H](C(C)C)NC(=O)[C@H](CC(C)C)N(C)C(=O)[C@H](C(C)C)NC(=O)[C@H]([C@H](OC)c7ccccc7)NC(=O)[C@H](C)NC(=O)[C@H](C[C@@H](C)CO)N(C)C6=O)c6ccccc65)nn4)nn3)c3ccccc23)NC(=O)[C@H](C(C)C)NC(=O)[C@H](CC(C)C)N(C)C(=O)[C@H](C(C)C)NC1=O [Compound 6],Microsomal Stability Rat QH,[1]; Rat,<23.100%
same,Microsomal Stability Rat,[1]; clearance in microsomes,< 23 %Qh
same,Hepatocyte Mice,[2],15 %Qh
same,"1-Dmax, single measurements",[3]; Measurement 1-4,67.3% and 57.3% and 45.9% and 46.4%
same,1-Dmax (percent substrate remaining at maximal degradation),"[3]; mean of the measurements, read-out: 1-Dmax, Mean",54%
same,DC50,"[3]; mean of the measurements, read-out: DC50, Mean",5.8 µM
same,Plasma concentration 0.5 h,[4]; [9],BLOQ
same,Plasma concentration 1 h,[4]; [9],BLOQ
same,Plasma concentration 2 h,[4]; [9],BLOQ
same,Plasma concentration 4 h,[4]; [9],BLOQ
same,Plasma concentration 6 h,[4]; [9],BLOQ
same,Plasma concentration 24 h,[4]; [9],BLOQ
same,Plasma concentration […],[4]; [9],BLOQ
same,Plasma concentration 0.5 h,[4]; [10],BLOQ
same,Plasma concentration 1 h,[4]; [10],BLOQ
same,Plasma concentration 2 h,[4]; [10],BLOQ
same,Plasma concentration 4 h,[4]; [10],BLOQ
same,Plasma concentration 6 h,[4]; [10],BLOQ
same,Plasma concentration 24 h,[4]; [10],BLOQ
same,Plasma concentration […],[4]; [10],BLOQ
"COc1c(N2C[C@@H]3CCCN[C@@H]3C2)c(F)cc2c(=O)c(C(=O)O)cn(C3CC3)c12 [Moxifloxacin, reference compound]",MIC,"[5]; Gram negative, n = 3 well replicates",0.6 µM
same,MIC,"[5]; Gram-Negative Bacteria, replicates 1-3",0.62 µM and 0.25 µg/mL
same,MBC,"[6]; individual example, read-out: MBC Mtb H37Rv",0.3 µM and 0.1 µg/mL
same,MBC,[6]; read-out: MBC (from Set 3) Mtb H37Rv,0.13 µg/mL and 0.31 µM
same,MIC (µg/ml) Mycobacterium avium,"[7]; Experiment 2, three replicate columns",1 µg/mL
same,MIC,"[7]; Experiment 2, three replicate columns, read-out: MIC (µM) Mycobacterium avium",2.49 µM
same,MIC,"[7]; Mycobacterium avium, Experiment 1, read-out: MIC Mycobacterium avium",2.49 µM and 1 µg/mL
same,MIC,"[7]; Mycobacterium avium, Experiment 2, three replicate columns, read-out: MIC (µM) Mycobacterium avium",2.49 µM
same,MIC,"[7]; Mycobacterium avium, Experiment 2, three replicate columns, read-out: MIC (µg/ml) Mycobacterium avium",1 µg/mL
same,MIC,"[7]; Mycobacterium avium, mean ± SD, read-out: MIC Mycobacterium avium",2.5 µM
same,MIC,"[8]; Mycobacterium tuberculosis, ATCC35825, mean, n = 2 well replicates",0.1 µM and 0.1 µg/mL
same,MIC,"[8]; Mycobacterium tuberculosis, ATCC35825, single well replicates",0.06 µg/mL and 0.15 µM
same,MIC,[8]; single well replicates,0.15 µM
same,MIC Mtb ATCC 35825,[8]; single well replicates,0.06 µg/mL
